Experimental data from ChEMBL document CHEMBL5537113, “Discovery of 1,2-diaryl-3-oxopyrazolidin-4-carboxamides as a new class of MurA enzyme inhibitors and characterization of their antibacterial activity” (Eur J Med Chem, 2023).
Active and inactive are the calls of the source. The calls are words filed in the database; no cut-off is given here.

Columns and labels:
[1] = target: UDP-N-acetylglucosamine 1-carboxyvinyltransferase (Escherichia coli K-12, UniProt P0A749); assay: Inhibition of Escherichia coli K12 His-tagged MurA expressed in Escherichia coli BL21 cells using UNAG as substrate pre incubated for 15 mins followed by substrate addition and measured after 15 mins by microplate reader analysis
Sequence of UDP-N-acetylglucosamine 1-carboxyvinyltransferase (P0A749 whole entry): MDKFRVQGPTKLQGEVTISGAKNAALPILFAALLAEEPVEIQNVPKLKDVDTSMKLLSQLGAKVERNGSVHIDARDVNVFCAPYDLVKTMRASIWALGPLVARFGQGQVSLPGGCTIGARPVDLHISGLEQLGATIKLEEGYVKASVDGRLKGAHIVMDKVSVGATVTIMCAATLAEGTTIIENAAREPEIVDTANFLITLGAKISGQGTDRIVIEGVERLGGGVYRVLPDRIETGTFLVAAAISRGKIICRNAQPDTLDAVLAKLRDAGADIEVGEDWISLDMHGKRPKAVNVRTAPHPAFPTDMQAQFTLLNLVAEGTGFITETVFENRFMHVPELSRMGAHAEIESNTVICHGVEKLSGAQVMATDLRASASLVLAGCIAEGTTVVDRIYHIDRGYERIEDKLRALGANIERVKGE

[2] = target: UDP-N-acetylglucosamine 1-carboxyvinyltransferase (Escherichia coli K-12) (UniProt P0A749); assay: Inhibition of Escherichia coli K12 His-tagged MurA expressed in Escherichia coli BL21 cells at 50 uM using UNAG as substrate pre incubated for 15 mins followed by substrate addition and measured after 15 mins by microplate reader analysis relative to control; details: time 30.0 min
Sequence of UDP-N-acetylglucosamine 1-carboxyvinyltransferase (Escherichia coli K-12) (P0A749 whole entry): as above

[3] = tested on: Staphylococcus aureus; assay: Antibacterial activity against Staphylococcus aureus Newman D2C NCTC 10833 assessed as reduction in microbial growth incubated for 16 hrs by serial dilution method; type: functional
[4] = tested on: Escherichia coli; assay: Antibacterial activity against Escherichia coli harboring tolC deletion mutant assessed as reduction in microbial growth incubated for 16 hrs by serial dilution method; type: functional

With `O=C(Nc1ccc2[nH]ncc2c1)C1CN(c2cccc(Cl)c2)N(c2cccc(Cl)c2)C1=O` (stereo not given) the IC50 [1] was 44.1 µM, the inhibition [2] was 59.5% and the MIC [3] was greater than 40 µM. For the same compound, the MIC [4] was 23 µM.
In the case of `O=C(Nc1cccc(-c2cn[nH]c2)c1)C1CN(c2cccc(Cl)c2)N(c2cccc(Cl)c2)C1=O` (stereo not given), the IC50 [1] is reported as 31 µM, the inhibition [2] is reported as 60.4% and the MIC [3] is reported as greater than 40 µM. For the same compound, the MIC [4] was greater than 40 µM.
`O=C(Nc1ccc2[nH]cnc2c1)C1CN(c2cccc(Cl)c2)N(c2cccc(Cl)c2)C1=O` (stereo not given) gave an IC50 [1] of 33.5 µM, an inhibition [2] of 74.2% and an MIC [3] greater than 40 µM. The MIC [4] was 18 µM.
`CN1C(=O)C(C(=O)Nc2ncc(C#N)s2)CN1c1cccc(Cl)c1` (stereo not given) was tested, and the inhibition [2] was “inactive”, the MIC [3] was greater than 40 µM and the MIC [4] was greater than 40 µM.
`CN1C(=O)C(C(=O)NC2CCSC2=O)CN1c1cccc(Cl)c1` (stereo not given) was tested, and the inhibition [2] was “inactive”, the MIC [3] was greater than 40 µM and the MIC [4] was greater than 40 µM.
For `O=C(NCc1ccccn1)C1CN(c2cccc(Cl)c2)N(c2cccc(Cl)c2)C1=O` (stereo not given), the inhibition [2] was “inactive”, the MIC [3] was greater than 40 µM and the MIC [4] was greater than 40 µM.
In the case of `O=C(Nc1ccc2cn[nH]c2c1)C1CN(c2cccc(Cl)c2)N(c2cccc(Cl)c2)C1=O` (stereo not given), the IC50 [1] is reported as 35.4 µM, the inhibition [2] is reported as 65.2% and the MIC [3] is reported as greater than 40 µM. The MIC [4] was 20 µM.
Work on `O=C1SCCC1NC(=O)C1CN(c2cccc(Cl)c2)N(c2cccc(Cl)c2)C1=O` (stereo not given) yielded an inhibition [2] of 35%, an MIC [3] of 11 µM and an MIC [4] of 17 µM.
`O=C(Nc1ccsc1)C1CN(c2cccc(Cl)c2)N(c2cccc(Cl)c2)C1=O` (stereo not given) gave an inhibition [2] of 24.7%, an MIC [3] greater than 40 µM and an MIC [4] greater than 40 µM.
`O=C(NCc1cccnc1)C1CN(c2cccc(Cl)c2)N(c2cccc(Cl)c2)C1=O` (stereo not given) was tested, and the inhibition [2] was 11.8%, the MIC [3] was greater than 40 µM and the MIC [4] was greater than 40 µM.
With `Cc1cnc(NC(=O)C2CN(c3cccc(Cl)c3)N(c3cccc(Cl)c3)C2=O)s1` (stereo not given) the IC50 [1] was 22 µM, the inhibition [2] was 59.6% and the MIC [3] was greater than 40 µM. It also gave an MIC [4] of 40 µM.
With `O=C1SCCC1NC(=O)C1CN(c2ccccc2)N(c2ccccc2)C1=O` (stereo not given) the inhibition [2] was “inactive”, the MIC [3] was greater than 40 µM and the MIC [4] was greater than 40 µM.
Compound `O=C(Nc1cncc(Cl)c1)C1CN(c2cccc(Cl)c2)N(c2cccc(Cl)c2)C1=O` (stereo not given) has an inhibition [2] of 18.2%, an MIC [3] greater than 40 µM and an MIC [4] greater than 40 µM.
`O=C(NCc1ccco1)C1CN(c2cccc(Cl)c2)N(c2cccc(Cl)c2)C1=O` (stereo not given) showed an inhibition [2] of 34%, an MIC [3] greater than 40 µM and an MIC [4] greater than 40 µM.
Compound `O=C(Nc1ccc2ncsc2c1)C1CN(c2cccc(Cl)c2)N(c2cccc(Cl)c2)C1=O` (stereo not given) has an inhibition [2] of 44.7%, an MIC [3] greater than 40 µM and an MIC [4] greater than 40 µM.
With `O=C(Nc1nccs1)C1CN(c2cccc(Cl)c2)N(c2cccc(Cl)c2)C1=O` (stereo not given) the inhibition [2] was 17.8%, the MIC [3] was greater than 40 µM and the MIC [4] was greater than 40 µM.
Compound `O=C(Nc1ncc(Cl)s1)C1CN(c2cccc(Cl)c2)N(c2cccc(Cl)c2)C1=O` (stereo not given) has an IC50 [1] of 24 µM, an inhibition [2] of 67.7% and an MIC [3] greater than 40 µM. The MIC [4] was greater than 40 µM.
With `N#Cc1cnc(NC(=O)C2CN(c3ccccc3)N(c3ccccc3)C2=O)s1` (stereo not given) the inhibition [2] was “inactive”, the MIC [3] was greater than 40 µM and the MIC [4] was greater than 40 µM.
Compound `O=C(Nc1cccnc1)C1CN(c2cccc(Cl)c2)N(c2cccc(Cl)c2)C1=O` (stereo not given) has an inhibition [2] of 8.7%, an MIC [3] greater than 40 µM and an MIC [4] of 38 µM.
With `O=C(Nc1ccccn1)C1CN(c2cccc(Cl)c2)N(c2cccc(Cl)c2)C1=O` (stereo not given) the inhibition [2] was 30.5%, the MIC [3] was greater than 40 µM and the MIC [4] was greater than 40 µM.
Work on `O=C(Nc1nc(C(F)(F)F)cs1)C1CN(c2cccc(Cl)c2)N(c2cccc(Cl)c2)C1=O` (stereo not given) yielded an IC50 [1] of 38.6 µM, an inhibition [2] of 59.2% and an MIC [3] of 40 µM. For the same compound, the MIC [4] was greater than 40 µM.
For `O=C(NCc1ccncc1)C1CN(c2cccc(Cl)c2)N(c2cccc(Cl)c2)C1=O` (stereo not given), the inhibition [2] was “inactive”, the MIC [3] was greater than 40 µM and the MIC [4] was greater than 40 µM.
Compound `CSc1nnc(NC(=O)C2CN(c3cccc(Cl)c3)N(c3cccc(Cl)c3)C2=O)s1` (stereo not given) has an IC50 [1] of 26.9 µM, an inhibition [2] of 63.4% and an MIC [3] greater than 40 µM. It also gave an MIC [4] of 38 µM.
`N#Cc1ccc(NC(=O)C2CN(c3cccc(Cl)c3)N(c3cccc(Cl)c3)C2=O)cn1` (stereo not given) gave an inhibition [2] of 32.2%, an MIC [3] greater than 40 µM and an MIC [4] greater than 40 µM.
